The values that follow come from patent US9237747B2, “Herbicidal compositions comprising 4-amino-3-chloro-5-fluoro-6-(4-chloro-2-fluoro-3-methoxyphenyl) pyridine-2-carboxylic acid or a derivative thereof and insecticides” (priority 2013, dated 2016).

“And” between values parts separate entries of the source, which are not always exact repeats. Equal entries are not always repeated. Where two headings read alike, the source gives them in different places.

In one test the test system is ECHCO. Briefly: Postemergence foliar-applied weed control, direct-seeded rice (greenhouse). In kind it is in vivo, Echinochloa colonum. As for the experimental part:
Seeds or nutlets of the desired test plant species were planted in a soil matrix prepared by mixing a loam or sandy loam soil (e.g., 28.6 percent silt, 18.8 percent clay, and 52.6 percent sand, with a pH of about 5.8 and an organic matter content of about 1.8 percent) and calcareous grit in an 80 to 20 ratio. The soil matrix was contained in plastic pots with a volume of 1 quart and a surface area of 83.6 square centimeters (cm^2). […] The plants were grown for 8-22 days in a greenhouse with an approximate 14 hour (h) photoperiod which was maintained at about 29° C. during the day and 26° C. during the night. Nutrients (Peters Excel® 15-5-15 5-Ca 2-Mg and iron chelate) were applied in the irrigation solution as needed and water was added on a regular basis. Supplemental lighting was provided with overhead metal halide 1000-Watt lamps as necessary. The plants were employed for testing when they reached the first through fourth true leaf stage.
Treatments consisted of the acid or esters of 4-amino-3-chloro-6-(4-chloro-2-fluoro-3-methoxyphenyl)-5-fluoropyridine-2-carboxylic acid (Compound A), each formulated as an SC (suspension concentrate), and various insecticidal components alone and in combination. Forms of compound A were applied on an acid equivalent basis.
For treatments comprised of formulated compounds, measured amounts of compounds were placed individually in 25 mL glass vials and diluted in a volume of 1.25% volume per volume (v/v) Agri-Dex® crop oil concentrate to obtain 12× stock solutions. […] Application solutions were prepared by adding an appropriate amount of each stock solution (e.g., 1 mL) and diluted to the appropriate final concentrations with the addition of […] of an aqueous mixture of 1.25% (v/v) crop oil concentrate so that the final spray solutions contained 1.25+/−0.05% (v/v) crop oil concentrate.
As required, additional water and/or 97:3 v/v acetone/DMSO was added to individual application solutions so that the final acetone and DMSO concentrations of the application solutions being compared were 8.1% and 0.25%, respectively.
All stock solutions and applications solutions were visually inspected for compound compatibility prior to application. Spray solutions were applied to the plant material with an overhead Mandel track sprayer equipped with 8002E nozzles calibrated to deliver 187 L/ha over an application area of 0.503 square meters (m^2) at a spray height of 18 to 20 inches (46 to 50 cm) above average plant canopy height. Control plants were sprayed in the same manner with the solvent blank.
The treated plants and control plants were placed in a greenhouse as described above and watered by sub-irrigation to prevent wash-off of the test compounds. After approximately 3 weeks, the condition of the test plants as compared to that of the untreated plants was determined visually and scored on a scale of 0 to 100 percent where 0 corresponds to no injury or growth inhibition and 100 corresponds to complete kill.
Colby's equation was used to determine the herbicidal effects expected from the mixtures (Colby, S. R. Calculation of the synergistic and antagonistic response of herbicide combinations. Weeds 1967, 15, 20-22.).
The following equation was used to calculate the expected activity of mixtures containing two active ingredients, A and B: Expected=A+B−(A×B/100)

The subject of the next test is LEFCH. The test is described as follows: whole plant or invertebrate. In kind it is in vivo, Leptochloa chinensis. An outline of the steps:
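Greenhouse plants at first-fourth true leaf stage sprayed post-emergence at 187 L/ha with SC formulations (acid equivalent basis) in 1.25% v/v crop oil concentrate. Visual injury scored 0-100% versus untreated after ~3 weeks; expected mixture effects by Colby's equation.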

For the molecule `COc1c(Cl)ccc(-c2nc(C(=O)O)c(Cl)c(N)c2F)c1F` [Compound A Acid, 4-amino-3-chloro-6-(4-chloro-2-fluoro-3-methoxyphenyl)-5-fluoropyridine-2-carboxylic acid], the “Visual Weed Control (%) - 22 DAA ECHCO Obs” value in the test with ECHCO (4.38 g ae/ha alone) is listed as 55%. Moreover, the “Visual Weed Control (%) - 21 DAA ECHCO Obs” value in the test with ECHCO (4.38 g ae/ha alone) is 60%; in the test on ECHCO (8.75 g ae/ha alone), 90%; in the test on ECHCO (17.5 g ae/ha alone), 95%. The “Visual Weed Control (%) - 20 DAA LEFCH Obs” value in the test on LEFCH (4.38 g ae/ha alone) amounted to 0%; with LEFCH (5.3 g ae/ha alone), 0%; in the test with LEFCH (10.6 g ae/ha alone), 20%; in the test with LEFCH (21.2 g ae/ha alone) it was 45%. The “Visual Weed Control (%) - 21 DAA LEFCH Obs” value in the test with LEFCH (21 DAA, 8.75 g ae/ha alone) is reported as 30%; in the test on LEFCH (21 DAA, 17.5 g ae/ha alone), 30%.

Consider `COc1c(Cl)ccc(-c2nc(C(=O)OCc3ccccc3)c(Cl)c(N)c2F)c1F` [Compound A Benzyl Ester], for which the “Visual Weed Control (%) - 19 DAA ECHCO Obs” value stood at 65% in the test with ECHCO (8 g ae/ha alone); 90% with ECHCO (16 g ae/ha alone); 65% in the test on ECHCO (19 DAA, 8 g ae/ha alone); 90% with ECHCO (19 DAA, 16 g ae/ha alone); 95% in the test with ECHCO (19 DAA, 32 g ae/ha alone); 95% in the test on ECHCO (32 g ae/ha alone). Moreover, the “Visual Weed Control (%) - 20 DAA ECHCO Obs” value with ECHCO (8 g ae/ha alone) was found to be 65%. Further, the “Visual Weed Control (%) - 20 DAA LEFCH Obs” value is 15% and 20% in the test with LEFCH (4.38 g ae/ha alone); 15% in the test on LEFCH (8 g ae/ha alone); 30% and 35% with LEFCH (8.75 g ae/ha alone); 25% in the test with LEFCH (16 g ae/ha alone); 50% and 60% with LEFCH (17.5 g ae/ha alone); 30% in the test on LEFCH (32 g ae/ha alone). The “Visual Weed Control (%) - 21 DAA LEFCH Obs” value is recorded as 10% with LEFCH (4.38 g ae/ha alone); 25% in the test on LEFCH (8.75 g ae/ha alone); 30% with LEFCH (17.5 g ae/ha alone); 15% in the test with LEFCH (21 DAA, 8 g ae/ha alone); 15% in the test on LEFCH (21 DAA, 16 g ae/ha alone); 50% in the test with LEFCH (21 DAA, 17.5 g ae/ha alone). In addition, in the test on LEFCH (21 DAA, 32 g ae/ha alone), the “Visual Weed Control (%) - 21 DAA LEFCH Obs” value turned out to be 25%. Further, the “Visual Weed Control (%) - 19 DAA LEFCH Obs” value stood at 45% with LEFCH (8 g ae/ha alone); 45% with LEFCH (16 g ae/ha alone); 45% with LEFCH (19 DAA, 8 g ae/ha alone); 45% in the test on LEFCH (19 DAA, 16 g ae/ha alone); 50% with LEFCH (19 DAA, 32 g ae/ha alone); 50% with LEFCH (32 g ae/ha alone). Moreover, the pest or weed control at 4.38 g/ha in the test with LEFCH (Dinebra chinensis, post-emergence, 528 h, 4.38 g ae/ha alone, read-out: Visual Weed Control (%) - 22 DAA LEFCH Obs) came to 30%. The pest or weed control at 8 g/ha in the test on LEFCH (Dinebra chinensis, post-emergence, 528 h, 8 g ae/ha alone, read-out: Visual Weed Control (%) - 22 DAA LEFCH Obs) amounted to 25%; in the test on LEFCH (Dinebra chinensis, post-emergence, 528 h, 22 DAA, 8 g ae/ha alone, second part of Table 18, read-out: Visual Weed Control (%) - 22 DAA LEFCH Obs), 18%. Also, the pest or weed control at 16 g/ha came out at 30% with LEFCH (Dinebra chinensis, post-emergence, 528 h, 16 g ae/ha alone, read-out: Visual Weed Control (%) - 22 DAA LEFCH Obs); 25% with LEFCH (Dinebra chinensis, post-emergence, 528 h, 22 DAA, 16 g ae/ha alone, read-out: Visual Weed Control (%) - 22 DAA LEFCH Obs); 43% in the test with LEFCH (Dinebra chinensis, post-emergence, 528 h, 22 DAA, 16 g ae/ha alone, second part of Table 18, read-out: Visual Weed Control (%) - 22 DAA LEFCH Obs). In addition, the pest or weed control at 32 g/ha amounted to 55% with LEFCH (Dinebra chinensis, post-emergence, 528 h, 22 DAA, 32 g ae/ha alone, read-out: Visual Weed Control (%) - 22 DAA LEFCH Obs); 53% in the test on LEFCH (Dinebra chinensis, post-emergence, 528 h, 22 DAA, 32 g ae/ha alone, second part of Table 18, read-out: Visual Weed Control (%) - 22 DAA LEFCH Obs); 60% in the test on LEFCH (Dinebra chinensis, post-emergence, 528 h, 32 g ae/ha alone, read-out: Visual Weed Control (%) - 22 DAA LEFCH Obs).

In the case of `CC(c1ccc(C(F)(F)F)nc1)S(C)(=O)=NC#N` (stereo not drawn) [Sulfoxaflor, N-[methyloxido[1-[6-(trifluoromethyl)-3-pyridinyl]ethyl]-λ^4-sulfanylidene]cyanamide], the “Visual Weed Control (%) - 21 DAA ECHCO Obs” value in the test with ECHCO (12.5 g ai/ha alone), in the test on ECHCO (25 g ai/ha alone) and in the test on ECHCO (50 g ai/ha alone) was 0% throughout. Further, the “Visual Weed Control (%) - 21 DAA LEFCH Obs” value amounted to 0% with LEFCH (21 DAA, 12.5 g ai/ha alone); 0% in the test on LEFCH (21 DAA, 25 g ai/ha alone); 0% in the test with LEFCH (21 DAA, 37.5 g ai/ha alone); 0% in the test on LEFCH (21 DAA, 50 g ai/ha alone); 0% with LEFCH (21 DAA, 75 g ai/ha alone); 0% in the test on LEFCH (21 DAA, 150 g ai/ha alone).
